Measured values: patent US11439618B2, “Compositions and methods for lowering triglycerides” (Amarin Pharmaceuticals Ireland Limited, priority 2009, dated 2022)

Tested on: subjects with Age-Associated Memory Impairment
Experiment: Safety and tolerability (adverse events), 6-week AAMI study
Assay type: in vivo, human
Method: All randomized subjects that received at least 1 dose of study medication were included in the Safety Population.
Safety evaluations were based on the safety population. Safety and tolerability were assessed in terms of AEs, vital signs, 12-lead ECG, clinical laboratory data, medical history, and study drug compliance. Safety and tolerability data were presented by treatment group.

CC/C=C\C/C=C\C/C=C\C/C=C\C/C=C\CCCC(=O)OCC [Ethyl-EPA, all-cis eicosa-5,8,11,14,17-pentaenoic acid ethyl ester]
Nausea Probably Related to the study drug (1 g): One
Nausea Possibly Related to the study drug (1 g cohort): two
Nausea Possibly Related to the study drug (2 g cohort): one
SAE reported (2 g treatment group): One
Subjects discontinued due to TEAEs (2 g treatment group): 2 subjects
Serious adverse event (worsening epigastric chest pain), relation to study drug (2 g, one subject, 17 days after start, 9 days after last dose): unrelated to the study drug
Nausea Possibly Related to the study drug (4 g cohort): two
Diarrhea, relation to the study drug (4 g, one subject): diarrhea that was Probably Related to the study drug
Treatment emergent AEs (TEAEs) reported (ethyl-EPA treatment groups (1, 2, 4 g), placebo groups 34 events): 105 events
Deaths during the study (whole study): no deaths
Severity and relatedness of most TEAEs (whole study): mild in severity and unrelated to study drug
TEAEs Definitely Related to the study drug (whole study): No TEAEs were Definitely Related
